# Test results from US20230372458A1, “ANTIVIRAL AGENT FOR COMBINED THERAPY OF COVID-19 (SARS-COV-2)” (priority 2020, published 2023).
# Read-outs that look alike come from different tables or passages of the source.
# Tested on: COVID-19 (SARS-CoV-2)
# Conditions: lung damage by computer tomography
structure (smiles),measurement,setting,value
"NC(=O)c1nc(F)cnc1O [FPV, 6-fluoro-3-hydroxy-2-pyrazinecarboxamide]","CT on Day 14: Improvement, percent of patients",,(72.7%)
same,"CT on Day 14: No change, percent of patients",,(9.1%)
same,"CT on Day 14: Worsening, percent of patients",,(18.2%)
same,"CT on Day 14: Improvement, number of patients",count of patients,8
same,"CT on Day 14: No change, number of patients",count of patients,1
same,"CT on Day 14: Worsening, number of patients",count of patients,2
same,"CT on Day 14: Improvement, percent of patients",listed as FVP,72.7%
same,"CT on Day 14: No change, percent of patients",listed as FVP,9.1%
same,"CT on Day 14: Worsening, percent of patients",listed as FVP,18.2%
